Results from patent US11085081B2, “Methods and materials for determining pain sensitivity and predicting and treating related disorders” (The University of North Carolina at Chapel Hill, priority 2004, dated 2021).
Entries after “also recorded” stand apart in the source; their conditions may differ.

Tests used:
Sprague-Dawley rats = assay: Mechanical and thermal pain behavior testing (von Frey monofilaments, radiant heat); format: in vivo, rat; conditions: for paw withdrawal frequency to mechanical stimuli (25 g monofilament) / paw withdrawal latency to thermal stimuli / paw withdrawal threshold to mechanical stimuli: OR486 or RO41-0960 30 mg/kg i.p., or 3% carrageenan i.pl.; for paw withdrawal frequency to mechanical stimuli (25 g monofilament) / paw withdrawal latency to thermal stimuli / paw withdrawal threshold to mechanical stimuli / paw withdrawal frequency to mechanical stimuli, antagonist in the absence of OR486 / paw withdrawal latency to radiant heat, antagonist in the absence of OR486 / paw withdrawal threshold to mechanical stimuli, antagonist in the absence of OR486: relative to vehicle; for paw withdrawal frequency to mechanical stimuli, antagonist in the absence of OR486 / paw withdrawal latency to radiant heat, antagonist in the absence of OR486 / paw withdrawal threshold to mechanical stimuli, antagonist in the absence of OR486: i.p. 10 min prior to vehicle, phentolamine 3, propranolol 3, SCH23390 0.2, spiperone 0.2, betaxolol 1.0, ICI118,551 0.5, SR59230A 5 mg/kg; for blockade of OR486-induced hyperalgesia / heightened pain sensitivity: antagonist i.p. prior to OR486
Method: Rats were placed in plexiglass cages positioned over an elevated perforated stainless steel platform and habituated to the environment for 15-25 min prior to testing. Paw withdrawal threshold to punctate mechanical stimulation was assessed using the up-down method of Chaplan et al. (1994). A series of nine calibrated filaments (with bending forces of 0.40, 0.68, 1.1, 2.1, 3.4, 5.7, 8.4, 13.2, and 25.0 g; Sammons Preston Rolyan, Bolingbrook, Ill., U.S.A.) with approximately equal logarithmic spacing between stimuli (Mean±SEM: 0.232±0.04 units) were presented to the hind paw in successive order, whether ascending or descending. Filaments were positioned in contact with the hind paw for a duration of 3 s or until a withdrawal response occurred. Testing was initiated with the middle hair of the series (3.4 g). In the absence of a paw withdrawal response, an incrementally stronger filament was presented and in the event of a paw withdrawal, an incrementally weaker filament was presented. After the initial response threshold was crossed, this procedure was repeated four times in order to obtain a total of six responses in the immediate vicinity of the threshold. The presence of paw withdrawal (X) and absence of withdrawal (O) was noted together with the terminal filament used in the series of six responses. The 50% g threshold=(10^[Xf+kδ])/10,000, where Xf=value (in log units) of the final von Frey hair used; k=tabular value of pattern of positive (X) and negative (O) responses, and δ=mean difference (in log units) between stimuli.
Immediately following determination of the response threshold, paw withdrawal frequency (%) to punctate mechanical stimulation was assessed. A von Frey monofilament with a calibrated bending force of 25 g was presented to the hind paw 10 times for a duration of 1 s with an interstimulus interval of approximately 1 s. Mechanical hyperalgesia was defined as an increase in the percentage frequency ([# of paw withdrawals/10]×100) of paw withdrawal evoked by stimulation with von Frey monofilaments.
Thermal hyperalgesia was evaluated using the radiant heat method of Hargreaves et al. (1988) in the same animals evaluated for responsiveness to von Frey monofilaments. Radiant heat was presented through the floor of a finely perforated stainless steel platform to the midplantar region of the hind paw.
After establishing stable baseline responsiveness to mechanical and thermal stimuli, separate groups of rats received intraperitoneal injections of OR486 (30 mg/kg i.p.; N=8) or vehicle (N=8) one hour prior to behavioral testing. Responsiveness to von Frey filaments was reassessed at 30 min intervals for 2 hours. Paw withdrawal latencies to radiant heat were subsequently assessed at 2.5 hours into the testing procedure. Twenty-four hours later, baseline responsiveness to mechanical and thermal stimuli was reestablished. Animals received OR486 (30 mg/kg i.p.) or vehicle (consistent with the previous day). Thirty minutes following administration of drug or vehicle, separate groups of rats received intraplantar carrageenan (N=4 per group) or saline (N=4 per group). Responsiveness to von Frey filaments was reassessed at 30 min intervals for 2 hours following the induction of inflammation. Paw withdrawal latencies to radiant heat were subsequently assessed at 2.5 hours post carrageenan.
Rats were handled and habituated to the testing environment 2-3 days prior to establishing baseline responsiveness. On test days, rats were placed in plexiglass cages positioned over an elevated perforated stainless steel platform and habituated to the environment for 15-20 minutes prior to testing. Paw withdrawal threshold to punctate mechanical stimulation was assessed using the up-down method of Chaplan (Chaplan et al. (1994)). […]

TNFα, IL-1β, and IL-6 = assay: In vivo plasma cytokine measurement (ELISA); parameters: species or system rat; conditions: rats; for plasma levels of IL-1β: OR486 30 mg/kg i.p. or 3% carrageenan i.pl.; for plasma levels of IL-1β / plasma levels of IL-6 / plasma levels of TNFα: relative to vehicle; for plasma levels of IL-6 / plasma levels of TNFα: OR486 or RO41-0960 30 mg/kg i.p., or 3% carrageenan i.pl.
Method: Blood was centrifuged and plasma separated from red blood cells. Plasma IL-6 was measured in duplicate using enzyme-linked immunosorbant assay (ELISA) kits from R&D systems (Minneapolis, Minn., U.S.A.). Plasma TNFα and IL-1β were measured in duplicate by the University of North Carolina Proteomics Ilmmunotechnologies Core using ELISA kits from Biosource (Camarillo, Calif., U.S.A.) and the National Institute for Biological Standards and Control (UK), respectively.

3T3-L1 adipocytes = assay: In vitro cytokine measurement (real time PCR of transcripts) in adipocytes; format: cell-based, mouse; conditions: salmeterol 0.5 μM or CL316243 0.3 μM, 1 hr treatment; normalized to GAPDH
Method: Cell growth media consisted of Dulbecco's modified Eagle's medium supplemented with 10% heat-inactivated fetal bovine serum (Sigma, St. Louis, Mo., U.S.A.) and 1× penicillin-streptomycin (Gibco, Carlsbad, Calif., U.S.A.). Cells were maintained in a humidified atmosphere of 95% air and 5% CO2.
Two days after reaching confluence in growth media, adipogenesis was induced by incubating cells in growth media containing 0.25 μM dexamethasone (Sigma), 0.5 mM IBMX (Sigma), and 1 μM insulin (Sigma). After an additional 2 days in growth media containing 1 μM insulin, cells were grown for 6-8 days in normal growth media.
Total RNA was isolated using the RNeasy Mini Kit (Qiagen, Valencia, Calif., U.S.A.). RNA was then treated with 2 units of DNase I (Ambion, Austin, Tex., U.S.A.) at 37° C. for 30 min. Reverse transcription was performed according to the manufacturer's instructions. Briefly, the reverse transcription reaction mixture consisted of 1 μg DNase 1-treated RNA, 500 ng oligo-dT12-18, 10 mM dNTP, 40 units RNasin (Promega, Madison, Wis., U.S.A.), and 200 units of reverse transcriptase SUPERSCRIPT III™ (Invitrogen, Carlsbad, Calif., U.S.A.). cDNA synthesis was carried out at 50° C. for 1 hr followed by inactivation of reverse transcriptase at 70° C. for 15 min.
Mouse macrophages (RAW 264.7) and […] preadipocytes (3T3-L1) were obtained from the University of North Carolina Tissue Culture Facility. Cell maintenance and 3T3-L1 preadipocyte differentiation is described herein below. For pharmacological experiments, cells were seeded at a density of 5×10^5 cells/well in a 12-well plate (Corning). Total RNA was isolated and reverse transcribed as described in the supplementary materials. TNFα, IL-1β, and IL-6 transcripts were quantitated in quadruplicate by real time polymerase chain reaction using TAQMAN® Gene Expression Assays (Applied Biosystems, Foster City, Calif., U.S.A.) in an ABI PRISM 7000 Sequence Detection System. TNFα, IL-1β, and IL-6 transcript levels were normalized to Glyceraldehyde-3-phosphate dehydrogenase (GAPDH).

[1] = i.p. 10 min prior to OR486, ICI118,551 0.5 or 5.0 mg/kg, SR59230A 5 or 50 mg/kg, betaxolol 0.1, 1.0, 10 mg/kg, relative to vehicle prior to OR486
[2] = OR486 30 mg/kg i.p., relative to vehicle or carrageenan in the contralateral non-inflamed paw
[3] = propranolol 3 mg/kg i.p. 10 minutes prior to OR486, relative to vehicle, phentolamine, SCH23390 or spiperone prior to OR486
[4] = propranolol 3 mg/kg i.p. prior to OR486, relative to vehicle prior to OR486

Compound	paw withdrawal frequency to mechanical stimuli (25 g monofilament) (Sprague-Dawley rats)	paw withdrawal latency to thermal stimuli (Sprague-Dawley rats)	paw withdrawal threshold to mechanical stimuli (Sprague-Dawley rats)	plasma levels of IL-6 (TNFα, IL-1β, and IL-6)	plasma levels of TNFα (TNFα, IL-1β, and IL-6)	paw withdrawal frequency to mechanical stimuli, antagonist in the absence of OR486 (Sprague-Dawley rats)	paw withdrawal latency to radiant heat, antagonist in the absence of OR486 (Sprague-Dawley rats)	paw withdrawal threshold to mechanical stimuli, antagonist in the absence of OR486 (Sprague-Dawley rats)	blockade of OR486-induced hyperalgesia / heightened pain sensitivity (Sprague-Dawley rats)	further results
carrageenan	increased paw withdrawal frequency	decreased paw withdrawal latency	decreased paw withdrawal threshold	elevated levels	elevated levels					plasma levels of IL-1β (TNFα, IL-1β, and IL-6): elevated levels
CC(C)NCC(O)COc1ccc(CCOCC2CC2)cc1 (stereo not shown) [betaxolol]						failed to affect	failed to affect	failed to affect		paw withdrawal latency to radiant heat after OR486, selective βAR antagonists (Sprague-Dawley rats; i.p. 10 min prior to OR486, ICI118,551 5.0 mg/kg, SR59230A 5 or 50 mg/kg, betaxolol 0.1, 1.0, 10 mg/kg, relative to vehicle prior to OR486): failed to alter; paw withdrawal frequency to mechanical stimuli after OR486, selective βAR antagonists (Sprague-Dawley rats; [1]): failed to alter; paw withdrawal threshold to mechanical stimuli after OR486, selective βAR antagonists (Sprague-Dawley rats; [1]): failed to alter
C[C@H](Cc1ccc2c(c1)OC(C(=O)[O-])(C(=O)[O-])O2)NC[C@H](O)c1cccc(Cl)c1.[Na+].[Na+] [CL316243, disodium (R,R)-5-(2-[{2-(3-chlorophenyl)-2-hydroxyethyl}-amino]propyl)-1,3-benzodioxole-2,2, dicarboxylate]										increase in IL-6 mRNA levels in adipocytes (3T3-L1 adipocytes): 28 fold
O=[N+]([O-])c1cc(O)c(O)c([N+](=O)[O-])c1 [OR486]	increased paw withdrawal frequency	decreased paw withdrawal thresholds; also recorded: decreased paw withdrawal latency	significantly decreased paw withdrawal threshold	elevated plasma levels	elevated plasma levels					degree of mechanical and thermal hyperalgesia (Sprague-Dawley rats; OR486 30 mg/kg i.p. compared with carrageenan-induced inflammation of the hindpaw): comparable to that produced by carrageenan-induced inflammation; paw withdrawal frequency to 25 g monofilament, non-inflamed paw (Sprague-Dawley rats; [2]): increased paw withdrawal frequency; paw withdrawal latency to thermal stimuli, non-inflamed paw (Sprague-Dawley rats; [2]): decreased paw withdrawal latency; paw withdrawal threshold to mechanical stimuli, non-inflamed paw (Sprague-Dawley rats; [2]): decreased paw withdrawal threshold; plasma levels of IL-1β (TNFα, IL-1β, and IL-6; 30 mg/kg): elevated plasma levels
O=C(c1cc(O)c(O)c([N+](=O)[O-])c1)c1ccccc1F [RO41-0960]	increased paw withdrawal frequency	decreased paw withdrawal latency	decreased paw withdrawal threshold	a trend towards elevated levels	elevated plasma levels					mechanical and thermal pain sensitivity (Sprague-Dawley rats; RO41-0960 30 mg/kg i.p.): decreased mechanical and thermal pain sensitivity; plasma proinflammatory cytokine production (TNFα, IL-1β, and IL-6; RO41-0960 30 mg/kg i.p. vs vehicle, 30 mg/kg): increased cytokine production; also recorded: increases plasma proinflammatory cytokine levels; increase in plasma levels of IL-1β (TNFα, IL-1β, and IL-6; RO41-0960 30 mg/kg i.p. vs vehicle, no statistical analysis (sample loss)): 4.5 fold
Cc1ccc(N(CC2=NCCN2)c2cccc(O)c2)cc1 [phentolamine]						failed to affect	failed to affect	failed to affect	failed to block	
CC(C)NCC(O)COc1cccc2ccccc12 (stereo not shown) [propranolol]						failed to affect	failed to affect	failed to affect	completely blocks	paw withdrawal frequency to mechanical stimuli after OR486 (Sprague-Dawley rats; [3]): normalized; paw withdrawal latency to radiant heat after OR486 (Sprague-Dawley rats; [3]): normalized; paw withdrawal threshold to mechanical stimuli after OR486 (Sprague-Dawley rats; [3]): normalized; plasma levels of IL-1β after OR486 (TNFα, IL-1β, and IL-6; [4]): normalized plasma levels; also recorded: decreased plasma levels; plasma levels of IL-6 after OR486 (TNFα, IL-1β, and IL-6; [4]): normalized plasma levels; also recorded: decreased plasma levels; plasma levels of TNFα after OR486 (TNFα, IL-1β, and IL-6; [4]): normalized plasma levels; also recorded: decreased plasma levels
O=C(CCCN1CCC2(CC1)C(=O)NCN2c1ccccc1)c1ccc(F)cc1 [spiperone]						failed to affect	failed to affect	failed to affect	failed to block	
